Assay results as given in PubChem BioAssay (NCI).
Several values for one entry are separate records, joined by “and”; a condition that tells them apart may be missing. Identical values can stand only once.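 Cultured in 96-well plates, cells were exposed to test compound for 48 hours across five concentrations. Here, GI50 denotes the concentration required for 50% inhibition of growth. TGI denotes the concentration required for complete inhibition of growth.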 Non-standard residues stand in square brackets, D forms with d. Residues, ends and D or L forms follow the SMILES beside them. *: point of attachment. ONb = O=[N+]([O-])c1ccc(CO*)cc1; AllylGly = C=CC[CH](N)C(=O)O; Boc = CC(C)(C)OC(=O)*

Experiments:
Experiment in all cases: NCI tumour cell line growth inhibition, 48 h
[1] = tested on: PC-3 prostate
[2] = tested on: OVCAR-4 ovarian
[3] = tested on: SK-MEL-5 melanoma
[4] = tested on: UO-31 renal
[5] = tested on: SNB-75 CNS
[6] = tested on: SW-620 colon
[7] = tested on: EKVX NSCLC
[8] = tested on: T-47D breast

SMILES	GI50 [1]	TGI [1]	GI50 [2]	TGI [2]	GI50 [3]	TGI [3]	GI50 [4]	TGI [4]	GI50 [5]	TGI [5]	GI50 [6]	TGI [6]	GI50 [7]	TGI [7]	GI50 [8]	TGI [8]
Cc1cc(-c2ncc(CC(=O)Nc3ccc(-c4cnccn4)cn3)cc2C)ccn1	28.2 µM	> 100 µM	6.11 µM	> 100 µM	6.69 µM	29.6 µM	12.7 µM	> 100 µM	13.8 µM	> 100 µM	98.7 µM	> 100 µM				
COc1cc(C2CC(c3ccc(C)cc3)=NN2C=O)ccc1Oc1ccnc2cc(Cl)ccc12 (centres undefined)	> 50 µM	> 50 µM			> 50 µM	> 50 µM	> 50 µM	> 50 µM	1.13 µM	6.92 µM	> 50 µM	> 50 µM	7.75 µM	> 50 µM	2.9 µM	23.5 µM
CNc1ccc2nc3ccc(=[N+](C)C)cc-3sc2c1	0.41 µM and 0.203 µM	11.6 µM and 2.87 µM	0.398 µM and 0.299 µM	1.74 µM and 1.9 µM	0.212 µM and 0.263 µM	0.99 µM and 0.875 µM	2.74 µM and 2.2 µM	19 µM and 16.3 µM	1.89 µM and 1.34 µM	7.36 µM and 7.14 µM	1.63 µM and 0.424 µM	12.5 µM and 10.5 µM	4.63 µM and 0.518 µM	23.4 µM and 14.5 µM	1.86 µM and 0.489 µM	8.9 µM and 12.5 µM
O=C1NCc2ccc3c(-c4cccc(Cl)c4)c[nH]c3c21	0.281 µM	> 50 µM	1.95 µM	> 50 µM	0.269 µM	> 20.4 µM	0.465 µM	> 23.5 µM			0.195 µM	> 50 µM	0.381 µM	> 50 µM	0.277 µM	> 50 µM
CCC[CH2][Sn-]([CH2]CCC)([CH2]CCC)[O]c1cc(Cl)c(Cl)cc1Cl	0.207 µM	0.458 µM	0.148 µM	0.398 µM	0.168 µM	0.335 µM			0.231 µM	1.14 µM	0.207 µM	0.44 µM	0.216 µM	0.9 µM	0.137 µM	0.35 µM
C=CCn1c2c(c3ccccc3c1=O)C(=O)c1ccccc1-2		> 100 µM		> 100 µM		> 100 µM		> 100 µM		> 100 µM		> 100 µM		> 100 µM		> 100 µM
O=C(CCCCCCSc1nc(-c2ccccc2)cc(-c2ccc(Cl)cc2)n1)NO	1.98 µM	10.5 µM	2.52 µM	13.5 µM	1.69 µM	3.93 µM	0.905 µM	2.65 µM	1.95 µM	13.7 µM	1.48 µM	10.4 µM	3.7 µM	14.3 µM	1.62 µM	4.98 µM
COc1ccc(-c2nn3ncccc3c2-c2ccnc(Nc3ccc(Cl)c(C(F)(F)F)c3)n2)cc1	6.2 µM	> 25 µM	8.66 µM	> 25 µM	7.16 µM	> 22 µM	6.32 µM	> 25 µM	> 13.8 µM	> 25 µM	14.4 µM	> 25 µM	7.84 µM	> 25 µM	7.21 µM	> 25 µM
COc1cc(-c2nn(-c3ccc(NC(=O)c4ccc(Cl)c(Cl)c4)cc3)cc2-c2ccncc2)ccc1Cl	6.28 µM	> 100 µM	23.4 µM	> 100 µM			2.73 µM	9.85 µM	7.52 µM	> 100 µM	5.63 µM	> 100 µM	6.82 µM	> 100 µM	3.76 µM	> 100 µM
C=C1CC2(OC1=O)C(=O)N(CCCCCCCN1C(=O)C3(CC(=C)C(=O)O3)c3ccccc31)c1ccccc12 (centres undefined)	1.53 µM	6.58 µM	2.01 µM	7.6 µM	7.11 µM	13.7 µM	3.44 µM	9.95 µM	6.35 µM	19.5 µM	0.938 µM	2.21 µM	9.35 µM	19.3 µM	1.17 µM	5.02 µM
Cc1ncc(CN=Cc2ccc(Cl)cc2)c(N)n1		> 100 µM		> 100 µM		> 100 µM		> 100 µM		> 100 µM		> 100 µM		> 100 µM		> 100 µM
CCOC(=O)c1ccc(NC(=O)N2CC(C)OC(C)C2)cc1 (centres undefined)	> 100 µM	> 100 µM	> 100 µM	> 100 µM	> 100 µM	> 100 µM	> 100 µM	> 100 µM	> 100 µM	> 100 µM	> 100 µM	> 100 µM	> 100 µM	> 100 µM	> 100 µM	> 100 µM
CN(C)c1cccc2c(S(=O)(=O)N[C@H]3CC[C@H]4[C@@H]5CCc6cc(O)ccc6[C@H]5CC[C@]34C)cccc12	2.36 µM	> 100 µM	2.8 µM	13.8 µM	1.53 µM	2.9 µM	2.02 µM	7.51 µM	1.75 µM	9.52 µM	2.72 µM	14 µM			3.47 µM	30.1 µM
COc1ccc(-c2nc3sc(C)cn3c2/C=C/C(=O)c2cc(OC)c(OC)c(OC)c2)cc1	2.28 µM	7.17 µM	3.15 µM	> 100 µM	1.51 µM	2.91 µM	2.27 µM	7.61 µM	4.09 µM	> 100 µM			4.04 µM	> 100 µM	2.42 µM	8.94 µM
O=C(c1ccccc1)C(C(=O)c1ccccc1)C1(O)C(=O)c2ccccc2C1=O								> 100 µM		> 100 µM		> 100 µM		> 100 µM		
Cn1c(=O)nc2n(-c3ccc(Cl)cc3)c3ccc(Cl)cc3nc-2c1=O						2.37 µM		39.8 µM		10.4 µM		19.2 µM		28.7 µM		
C=C1C(=O)O[C@H]2[C@H]1CC/C(COC(=O)c1cc3cc(F)ccc3[nH]1)=C\CC[C@@]1(C)O[C@@H]21	1.7 µM	3.44 µM	1.67 µM	3.92 µM	1.85 µM	3.84 µM	1.2 µM	2.54 µM	11.1 µM	23.9 µM	1.43 µM	4.09 µM	1.58 µM	3.71 µM		
CCOC(=O)c1c2c(n3ccc(NC(=O)CCN4CCCC4)cc13)C(=O)c1ncccc1C2=O	1.31 µM	2.88 µM			15.1 µM	35 µM	0.724 µM	2.81 µM	1.05 µM	2.41 µM			1.46 µM	3.58 µM	1.7 µM	4.24 µM
COc1cc(C2C=C(c3cccc(NC(C)=O)c3)Nc3ncnn32)cc(OC)c1OC (centres undefined)	1.13 µM	> 100 µM	5.8 µM	> 100 µM	0.397 µM	22.2 µM	33.5 µM	> 100 µM	4.14 µM	> 100 µM	0.313 µM	> 100 µM	0.737 µM	> 100 µM		
C=CCC(NC(=O)OC(C)(C)C)C(=O)NC(CCC(=O)OCc1ccc([N+](=O)[O-])cc1)C(N)=O (centres undefined) (Boc-[AllylGly]-Glu(ONb)-NH2; configuration not given here)			87.2 µg/mL				19.7 µg/mL	38.5 µg/mL	21.4 µg/mL	51.5 µg/mL	95.9 µg/mL		22.8 µg/mL	61.7 µg/mL	77 µg/mL	
O=C(Oc1ccc(Cl)cc1Cl)c1ccccc1Nc1ccnc(C(F)(F)F)c1	8.24 µM	25.5 µM			2.85 µM	10.5 µM	18.1 µM	> 100 µM			4.59 µM	32.5 µM	18.5 µM	40.9 µM		
CC(=O)Nc1ccc2c(c1)c(C1=C(c3cn(C)c4ccccc34)C(=O)NC1=O)cn2C	0.754 µM	22.1 µM	2.54 µM	> 17.6 µM	1.45 µM	> 25 µM	1.16 µM	> 25 µM	0.465 µM	> 6.67 µM	1.02 µM	> 25 µM			1.66 µM	> 25 µM
COc1cc2c3c(n(C)c(=O)c2cc1OC)-c1cc2c(cc1/C3=C\CCCCCN)OCO2			17.4 µM	> 94.1 µM	3.12 µM	38.2 µM	2.08 µM	> 100 µM	19.5 µM	> 100 µM			16.4 µM	52.2 µM	5.61 µM	> 55.5 µM
N#CCC1COc2ccccc2O1 (centres undefined)		> 10 µM		> 10 µM		> 10 µM				> 10 µM		> 10 µM				> 10 µM
N#Cc1c(Sc2ccccc2N)cccc1Sc1ccccc1N			42.1 µM		34.7 µM		7.56 µM		2.24 µM	14.5 µM	79.8 µM		35.6 µM		51.7 µM	
COc1ccc(N=C2CSc3nnc(-c4cc(F)c(Cl)cc4Cl)n3N2)cc1	1.17 µM	13.9 µM	1.82 µM	7.04 µM	1.28 µM	11.1 µM			0.355 µM	1.58 µM	0.553 µM	13.1 µM	4.84 µM	41.7 µM	4.03 µM	32.7 µM
